Key:
[1] = system: absorption of sodium from the intestinal lumen; test: Fecal form score (FFS) 16 h after oral dose in rats; assay type: in vivo, rat; conditions: oral gavage, 16 h post-dose, scale 1-5
Method: (§1) Inhibition of intestinal sodium and phosphate absorption. Urinary sodium concentration and fecal form were measured to assess the ability of selected example compounds to inhibit the absorption of sodium from the intestinal lumen. Eight-week old Sprague-Dawley rats were purchased from Charles River Laboratories (Hollister, CA), were housed 2 per cage, and acclimated for at least 3 days before study initiation. Animals were fed Harlan Teklad Global 2018 rodent chow (Indianapolis, IN) and water ad libitum throughout the study and maintained in a standard light/dark cycle of 6 AM to 6 PM. On the day of the study, between 4 PM and 5 PM, a group of rats (n=6) were dosed via oral gavage with test compound, or a pharmaceutically acceptable salt thereof, or vehicle (water) at a volume of 10 mL/kg.
(§2) After dose administration animals were placed in individual metabolic cages where they were also fed the same chow in meal form and watered ad libitum. At 16 h post-dose, the urine samples were collected and fecal form was assessed by two independent observations. Fecal forms were scored according to a common scale associated with increasing fecal water to the wettest observation in the cage's collection funnel (1, normal pellet; 2, pellet adhering to sides of collection funnel due to moisture; 3, loss of normal pellet shape; 4, complete loss of shape with a blotting pattern; 5, liquid fecal streams evident). A rat's fecal form score (FFS) was determined by averaging both observational scores for all rats within a group (n=6). The vehicle group average was 1.

[2] = system: phosphorus and calcium levels in the urine of rats; test: Urinary excretion of phosphate and calcium in rats (16 h overnight urine); assay type: in vivo, rat; conditions: rats, oral gavage, 16 h post-dose
Rat NHE3 = target: T1, Rat NHE3 (Rattus norvegicus, UniProt P26433); test: Cell-based NHE3 activity under prompt conditions (OK cells, BCECF pH recovery), rat NHE3; conditions: prompt conditions
T1 construct: expressed in transfected cells; host or cells: Opossum kidney (OK) cells (ATCC), electroporation
T1 sequence (P26433 29-831): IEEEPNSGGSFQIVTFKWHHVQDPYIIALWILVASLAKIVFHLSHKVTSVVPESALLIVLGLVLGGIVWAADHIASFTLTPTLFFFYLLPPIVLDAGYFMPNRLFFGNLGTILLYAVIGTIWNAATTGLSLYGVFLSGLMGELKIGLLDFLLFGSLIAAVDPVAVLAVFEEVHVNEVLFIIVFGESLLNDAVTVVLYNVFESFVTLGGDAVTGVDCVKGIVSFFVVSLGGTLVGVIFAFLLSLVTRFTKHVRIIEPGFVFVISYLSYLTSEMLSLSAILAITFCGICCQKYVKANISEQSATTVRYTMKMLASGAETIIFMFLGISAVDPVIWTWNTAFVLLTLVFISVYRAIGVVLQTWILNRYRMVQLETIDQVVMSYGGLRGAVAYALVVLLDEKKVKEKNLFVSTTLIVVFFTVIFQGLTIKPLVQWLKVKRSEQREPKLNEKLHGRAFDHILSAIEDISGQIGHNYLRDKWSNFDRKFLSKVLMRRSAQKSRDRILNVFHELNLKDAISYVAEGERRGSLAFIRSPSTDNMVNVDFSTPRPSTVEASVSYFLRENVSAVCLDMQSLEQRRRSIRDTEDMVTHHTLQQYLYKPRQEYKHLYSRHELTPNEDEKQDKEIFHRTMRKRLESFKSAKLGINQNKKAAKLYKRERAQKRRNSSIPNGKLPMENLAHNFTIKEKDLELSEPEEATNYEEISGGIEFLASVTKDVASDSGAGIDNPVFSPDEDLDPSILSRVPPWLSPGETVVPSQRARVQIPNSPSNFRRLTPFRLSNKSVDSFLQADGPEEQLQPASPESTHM
Method: Cell-based activity under Prompt Conditions. Rat or human NHE3-mediated Na^+-dependent H antiport was measured using a modification of the pH sensitive dye method originally reported by Paradiso (PNAS USA. 81:7436-7440, 1984). Opossum kidney (OK) cells were obtained from the ATCC and propagated per their instructions. The rat NHE3 gene (GenBank M85300) or the human NHE3 gene (GenBank NM_004174.1) was introduced into OK cells via electroporation, and cells were seeded into 96 well plates and grown overnight. Medium was aspirated from the wells, cells were washed twice with NaCl-HEPES buffer (100 mM NaCl, 50 mM HEPES, 10 mM glucose, 5 mM KCl, 2 mM CaCl2, 1 mM MgCl2, pH 7.4), then incubated for 30 min at room temperature with NH4Cl-HEPES buffer (20 mM NH4Cl, 80 mM NaCl, 50 mM HEPES, 5 mM KCl, 2 mM CaCl2, 1 mM MgCl2, pH 7.4) containing 5 μM bis(acetoxymethyl) 3,3′-(3′,6′-bis(acetoxymethoxy)-5-((acetoxymethoxy)carbonyl)-3-oxo-3H-spiro[isobenzofuran-1,9′-xanthene]-2′,7′-diyl)dipropanoate (BCECF-AM).
Cells were washed twice with Ammonium free, Na^+-free HEPES (100 mM choline, 50 mM HEPES, 10 mM glucose, 5 mM KCl, 2 mM CaCl2, 1 mM MgCl2, pH 7.4) and incubated in the same buffer for 10 minutes at room temperature to lower intracellular pH. […] Initial rates were plotted as the average 2 or more replicates, and pIC50 values were estimated using GraphPad Prism.
Cell-based activity of NHE3 Activity under ‘Prompt’ Conditions. This assay was performed as described in Example 1 (supra).

[3] = system: absorption of sodium from the intestinal lumen; test: Inhibition of intestinal sodium absorption: urinary sodium (uNa) 16 h after single oral dose in rats; assay type: in vivo, rat; conditions: oral gavage, 16 h post-dose
Method: as §1, §2
For urine samples, the volumes were determined gravimetrically and centrifuged at 3,600×g. The supernatants were diluted 100-fold in deionized Milli-Q water then filtered through a 0.2 μm GHP Pall AcroPrep filter plate (Pall Life Sciences, Ann Arbor, MI) prior to analysis by ion chromatography. Ten microliters of each filtered extract was injected onto a Dionex ICS-3000 ion chromatograph system (Dionex, Sunnyvale, CA). Cations were separated by an isocratic method using 25 mM methanesulfonic acid as the eluent on an IonPac CS12A 2 mm i.d.×250 mm, 8 μm particle size cation exchange column (Dionex). Sodium was quantified using standards prepared from a cation standard mix containing Li^+, Na^+, NH4^+, K^+, Mg^2+, and Ca^2+ (Dionex). The mean mass of sodium urinated for every group in the 16 h period was determined with the vehicle group usually urinating approximately 21 mg sodium. The urine Na (uNa) for rats in the test groups were expressed as a percentage of the vehicle mean and the means were compared to that of the vehicle group by utilizing a one-way analysis of variance coupled with a Dunnett's post hoc test.
Further experiments were performed to test the compounds under the persistent and prompt conditions described above, and to test their effects on urinary excretion of sodium in rats. The latter was performed by orally dosing the compounds in rats (single dose) and measuring urinary Na excretion (as a % of vehicle). The results are indicated as percentage of urinary sodium (UNa %); low values indicate relatively active compounds.

Row | Prompt Rat NHE3 pIC50 (Rat NHE3) | SMILES | Fecal Form Score average ([1]; dose 10 mg/kg) | Urine P % of control ([2]; dose 10 mg/kg) | Urine Na % of control ([3]; dose 10 mg/kg) | Fecal Form Score average ([1]; dose 1 mg/kg) | Urine P % of control ([2]; dose 1 mg/kg) | Urine Na % of control ([3]; dose 1 mg/kg) | Fecal Form Score average ([1]; dose 3 mg/kg) | Urine P % of control ([2]; dose 3 mg/kg) | Urine Na % of control ([3]; dose 3 mg/kg)
1 | 6.60 | CCCCCCCCOCCOCCOCCOCCOCCOC(=O)NCCOCCOCCOCCNS(=O)(=O)c1cccc([C@@H]2CN(C)Cc3c(Cl)cc(Cl)cc32)c1 [compound 102] | 1 | 92% | 86% |  |  |  |  |  | 
2 | 7.30 | CN1Cc2c(Cl)cc(Cl)cc2[C@@H](c2cccc(S(=O)(=O)NCCOCCOCCNC(=O)NCCCCNC(=O)NCCOCCOCCNS(=O)(=O)c3cccc([C@@H]4CN(C)Cc5c(Cl)cc(Cl)cc54)c3)c2)C1 [compound 39] | 1 | 130% | 68% | 1 | 166% | 71% |  |  | 
3 | <5.00 | CN1Cc2c(Cl)cc(Cl)cc2[C@H](c2cccc(S(=O)(=O)NCCOCCOCCOCCNC(=O)c3ccc(-c4ccc(Cl)cc4)cc3)c2)C1 [compound 93] | 1 | 75% | 78% |  |  |  |  |  | 
4 | <5.00 | CCCCCCCCOc1ccc(CNCCOCCOCCOCCNS(=O)(=O)c2cccc([C@@H]3CN(C)Cc4c(Cl)cc(Cl)cc43)c2)cc1 [compound 111] | 2 | 69% | 60% |  |  |  |  |  | 
5 | 5.90 | CN1Cc2c(Cl)cc(Cl)cc2[C@H](c2cccc(S(=O)(=O)NCCOCCOCCNC(=O)CN(CCOCCOCCOCCNC(=O)c3ccc(-c4ccc(Cl)cc4)cc3)CC(=O)NCCOCCOCCNS(=O)(=O)c3cccc([C@@H]4CN(C)Cc5c(Cl)cc(Cl)cc54)c3)c2)C1 [compound 105] |  |  |  |  |  |  | 1 | 154% | 119%
6 | <5.00 | CCCCCCCCCCC(=O)NCCOCCOCCOCCNS(=O)(=O)c1cccc([C@@H]2CN(C)Cc3c(Cl)cc(Cl)cc32)c1 [compound 92] | 1 | 70% | 62% |  |  |  |  |  | 
7 | 6.70 | CCC(=O)NCCOCCOCCOCCNS(=O)(=O)c1cccc([C@@H]2CN(C)Cc3c(Cl)cc(Cl)cc32)c1 [compound 103] | 1 | 71% | 40% |  |  |  |  |  | 
8 |  | CN(CC(=O)NCCOCCOCCNS(=O)(=O)c1ccc(O[C@H]2c3ccccc3C[C@@H]2N2CCCCC2)cc1)CC(=O)NCCOCCOCCNS(=O)(=O)c1ccc(O[C@H]2c3ccccc3C[C@@H]2N2CCCCC2)cc1 (racemic) [compound 50] | 1 | 50% | 82% |  |  |  |  |  | 
9 | <5.00 | CN1Cc2c(Cl)cc(Cl)cc2[C@H](c2cccc(S(=O)(=O)NCCOCCOCCOCCNCc3ccc(-c4ccc(Cl)cc4)cc3)c2)C1 [compound 112] | 1 | 67% | 73% |  |  |  |  |  | 
10 | 5.80 | CN1Cc2c(Cl)cc(Cl)cc2[C@H](c2cccc(S(=O)(=O)NCCOCCOCCNC(=O)NCCN(CCNC(=O)NCCOCCOCCNS(=O)(=O)c3cccc([C@@H]4CN(C)Cc5c(Cl)cc(Cl)cc54)c3)C(=O)NCCOCCOCCNC(=O)c3ccc(-c4ccc(Cl)cc4)cc3)c2)C1 [compound 110] |  |  |  |  |  |  | 1 | 68% | 63%
11 | 7.80 | CN1Cc2c(Cl)cc(Cl)cc2C(c2cccc(S(=O)(=O)NCCOCCOCCNC(=O)CN(CCOCCOCCOCCN)CC(=O)NCCOCCOCCNS(=O)(=O)c3cccc([C@@H]4CN(C)Cc5c(Cl)cc(Cl)cc54)c3)c2)C1 (stereo in doubt) [compound 120] |  |  |  |  |  |  | 1 | 71% | 71%
12 | 6.60 | CN1Cc2c(Cl)cc(Cl)cc2C(c2cccc(S(N)(=O)=O)c2)C1 (stereo not drawn) [compound 1] | 1 | 52% | 87% |  |  |  |  |  | 
13 | 8.40 | CN1Cc2c(Cl)cc(Cl)cc2[C@H](c2cccc(S(=O)(=O)NCCOCCOCCNC(=O)NCCN(CCNC(=O)NCCOCCOCCNS(=O)(=O)c3cccc([C@@H]4CN(C)Cc5c(Cl)cc(Cl)cc54)c3)C(=O)NCCOCCOCCN)c2)C1 [compound 108] |  |  |  |  |  |  | 4 | 51% | 13%
14 | 6.70 | C=CC(=O)NCCOCCOCCOCCNS(=O)(=O)c1cccc([C@@H]2CN(C)Cc3c(Cl)cc(Cl)cc32)c1 [compound 104] | 2 | 62% | 56% |  |  |  |  |  | 
15 |  | CN1Cc2c(Cl)cc(Cl)cc2[C@H](c2cccc(S(=O)(=O)NCCOCCOCCNC(=O)CCC(CCC(=O)NCCOCCOCCNS(=O)(=O)c3cccc([C@@H]4CN(C)Cc5c(Cl)cc(Cl)cc54)c3)(CCC(=O)NCCOCCOCCNS(=O)(=O)c3cccc([C@@H]4CN(C)Cc5c(Cl)cc(Cl)cc54)c3)NC(=O)[C@H]3CCCC[C@@H]3C(=O)O)c2)C1 (racemic) [compound 141] |  |  |  |  |  |  | 2 | 24% | 63%

Row | SMILES | Prompt Rat NHE3 pIC50 (Rat NHE3) | Fecal Form Score average ([1]; dose 10 mg/kg) | Urine P % of control ([2]; dose 10 mg/kg) | Urine Na % of control ([3]; dose 10 mg/kg) | Fecal Form Score average ([1]; dose 1 mg/kg) | Urine P % of control ([2]; dose 1 mg/kg) | Urine Na % of control ([3]; dose 1 mg/kg) | Fecal Form Score average ([1]; dose 3 mg/kg) | Urine P % of control ([2]; dose 3 mg/kg) | Urine Na % of control ([3]; dose 3 mg/kg)
16 | CC(C)CCC[C@@H](C)[C@H]1CC[C@H]2[C@@H]3CC=C4C[C@@H](OC(=O)NCCOCCOCCNC(=O)N(CCNC(=O)NCCOCCOCCNS(=O)(=O)c5cccc([C@@H]6CN(C)Cc7c(Cl)cc(Cl)cc76)c5)CCNC(=O)NCCOCCOCCNS(=O)(=O)c5cccc([C@@H]6CN(C)Cc7c(Cl)cc(Cl)cc76)c5)CC[C@]4(C)[C@H]3CC[C@]12C [compound 121] | <5.00 |  |  |  |  |  |  | 1 | 151% | 92%
17 | CC(C)CCC[C@@H](C)[C@H]1CC[C@H]2[C@@H]3CC=C4C[C@@H](OC(=O)NCCOCCOCCOCCNS(=O)(=O)c5cccc([C@@H]6CN(C)Cc7c(Cl)cc(Cl)cc76)c5)CC[C@]4(C)[C@H]3CC[C@]12C [compound 125] | <5.00 | 1 | 278% | 81% |  |  |  |  |  | 

Source: patent US20240366589A1, “NHE3-BINDING COMPOUNDS AND METHODS FOR INHIBITING PHOSPHATE TRANSPORT” (Ardelyx, Inc., priority 2013, published 2024)
